Assay results as given in US9474282B2, “Acid-solubilized copper-ammonium complexes and copper-zinc-ammonium complexes, compositions, preparations, methods, and uses” (priority 2013, dated 2016).
Marks after values point to notes of the source that are not given here.

Experiments:
[1] = tested on: Candida albicans strains 1-1, 3-1 and 4-1; experiment: Anti-fungal/yeast microplate assay (MIC, resazurin); format: cell-based
Method: (§1) The three strains of Candida albicans (C. albicans) used: 1-1, 3-1 and 4-1 were isolated from human blood, vagina and oropharynx, respectively. Cryptococcus neoformans (C. neoformans) strain CCTP13 was used. All strains were cultured in RPMI-1640 medium at 37° C. The copper sulfate and Cu# compositions started at a high concentration of 200 micrograms/milliliter, whilst the Cu—Zn# compositions started at a high concentrations of 1% of the stock solution (Table 2) and zinc sulfate and phosphorous acid started with a high concentrations equivalent to those in Cu—Zn#7 and #10 (see the legend of Table 1 for details) doubling dilutions (100 microliters) of the compositions were prepared in RPMI-1640 in a 96-well tissue culture plate. Overnight C. albicans and C. neoformans cultures were diluted 1:40 and 1:10 respectively with fresh RPMI containing 40 mM MOPS buffer and 90 microliters was added to the compositions in the plate. Resazurin A (10 microliters of a 0.0675% wt/vol solution in distilled water) was added as an indicator of growth, and the cultures were incubated at 37° C. for 24 hr. The minimum inhibitory concentration (MIC) of the compounds/compositions was defined as the lowest concentration at which the resazurin A indicator remained blue (living cells convert the blue dye to a pink color).

[2] = tested on: Staphylococcus aureus strain (S1); experiment: Agar plate test for antibacterial effect, area of inhibition; format: cell-based
Method: (§2) A 0.2 milliliter sample of the P. acnes culture was spread onto a 9 centimeter Petri dish containing BHI agar and allowed to dry.
(§3) The composition to be tested was either diluted with distilled water and 5 microliters was placed onto a 5 millimeter filter paper disc or was added to the Aloe vera-based gel (without preservatives) described above at various concentrations and a 5 microliter drop was placed onto the agar surface. The plates were then incubated at 37° C. for 24 hours (under anaerobic conditions for P. acnes), when the zones of inhibition (ZoI) were measured in millimeters) twice at a […] angle using a ruler and the average diameter (D) was calculated. The area of inhibition in mm^2 (AoI) was calculated using the formula: AoI=π×(D/2)^2.

[3] = tested on: Propionibacterium acnes strain ATCC 11828 (P. acnes); experiment: Agar plate test for antibacterial effect, zone of inhibition; format: cell-based; conditions: stock diluted 1:200 in distilled water (200 microgram/milliliter elemental copper for Cu# and copper sulfate), BHI agar, 24 hours anaerobic
Method: as §2, §3

[4] = pH of stock solutions and gel formulation; format: physicochemical; conditions: stock solution
P. acnes = experiment: Bacterial microplate cultures (MIC); format: cell-based, Propionibacterium acnes
Method: (§4) The aerobic bacterial strains Acinetobacter baumannii (A. baumannii), methicillin-resistant Staphylococcus aureus (MRSA) and Klebsiella pneumonia (K. pneumoniae) were isolated from swabs taken in a hospital ward. Escherichia coli (NCTC 9001; E. coli) is a clinical isolate from a patient's urinary bladder; all strains were cultured in RPMI-1640. Stock solutions of the compounds/compositions to be tested were diluted so that double dilutions in the microplate assays commenced at a 1% vol/vol concentration. Double dilutions of the compositions to be tested were prepared in RPMI-1640 in a 96-well tissue culture plate. The bacterial cultures were diluted 1:40 with fresh RPMI and added to the compositions. P. acnes was cultured as described in EXAMPLE 1 (Agar plate test methods) and a sample was diluted 1:100 with fresh BHI. Double dilutions of the compositions to be tested were prepared as described above in distilled water in a 96-well tissue culture plate (100 microliters) and 100 microliters of the diluted P. acnes culture was added. The plates were then incubated at 37° C. for 24 hours (under anaerobic conditions for P. acnes). The minimum inhibitory concentration (MIC) of the compositions was defined as the lowest concentration at which no visible bacterial growth was observed.

[5] = tested on: Acinetobacter baumannii (A. baumannii); experiment: Bacterial microplate cultures (MIC); format: cell-based; conditions: RPMI-1640, 24 hours
Method: as §4

[6] = tested on: Escherichia coli (NCTC 9001; E. coli); experiment: Bacterial microplate cultures (MIC); format: cell-based; conditions: RPMI-1640, 24 hours
Method: as §4

[7] = tested on: Klebsiella pneumonia (K. pneumoniae); experiment: Bacterial microplate cultures (MIC); format: cell-based; conditions: RPMI-1640, 24 hours
Method: as §4

[8] = tested on: methicillin-resistant Staphylococcus aureus (MRSA); experiment: Bacterial microplate cultures (MIC); format: cell-based; conditions: RPMI-1640, 24 hours
Method: as §4

[9] = tested on: Aspergillus niger (A. niger); experiment: Anti-fungal assay with plant pathogenic fungi on PDA; format: cell-based
Method: (§5) Chalara […] isolate 196/28 ([…]), Aspergillus niger (A. niger) and a strain isolated from powdery mildew (Pm; isolated from an apple leaf) were cultured on potato dextrose agar (PDA) at room temperature (around 22° C.). […] The plate was agitated to evenly distribute the test composition evenly through the agar (distilled water alone was used as control) and then the agar was allowed to set. […] To assess the effects of compositions on fungal growth, the diameter of the fungal hyphae was measured twice at a 90° angle using a ruler and the average diameter in millimeters was calculated. If no fungal growth could be detected by eye, the cultures were observed by phase microscopy (40×) to confirm that there was no growth (NG) as judged by visual examination.

[10] = tested on: Chalara fraxinea isolate 196/28 (C. fraxinea); experiment: as above; format: cell-based
Method: as §5

[11] = tested on: strain isolated from powdery mildew (Pm); experiment: as above; format: cell-based, powdery mildew (isolated from an apple leaf); conditions: 3 days of culture
Method: as §5

[12] = tested on: Cryptococcus neoformans strain CCTP13; experiment: Anti-fungal/yeast microplate assay (MIC, resazurin); format: cell-based; conditions: C. neoformans
Method: as §1

A-431 = experiment: Cytotoxicity assay with a human squamous epithelial skin cell line (SRB assay); conditions: confluent A-431, 24 hours, SRB (FIG. 4)
Method: A-431 (ATCC) was cultured in RPMI-1640 medium supplemented with 10% fetal bovine serum and 2 mM L-glutamine (complete medium) in a humidified incubator at 37′C with a 5% CO2 in air atmosphere. For cytotoxicity experiments the cells were trypsinized, washed, counted and 2×10^4 cells were plated into the wells of flat-bottom 96-well plates in complete medium and cultured for 3 days until a confluent monolayer was formed. […] All test products were diluted in complete medium and then added in triplicate to the confluent A-431 cells which were then cultured for a further 24 hours when cytotoxicity/cell survival was quantitatively assessed using the sulforhodamine B (SRB) assay as described below.
The cells were washed twice with RPMI-1640 medium and then fixed with 10% trichloroacetic acid for 1 hour at 4° C. After washing twice with tap water, the cells were stained with SRB (0.4% w/v SRB in 1% acetic acid) for 30 min at room temperature. After washing twice with tap water the remaining stain was dissolved in 10 mM Tris base and the absorbance of the wells was measured on a Dynatech Multiplate ELISA reader at 540 nm. Percent cell survival was calculated by dividing the test product absorbance by control absorbance and multiplying by 100.

[13] = C. albicans strain 1-1, copper-free controls, concentration of zinc sulfate or phosphorous acid
[14] = C. albicans strain 3-1, copper-free controls, concentration of zinc sulfate or phosphorous acid
[15] = C. albicans strain 4-1, copper-free controls, concentration of zinc sulfate or phosphorous acid
[16] = Experiment #1, 24 hours anaerobic

## OP(O)O [Composition H3PO3, phosphorous acid]
[1]; [13]
  MIC: >500 µg/mL
[1]; [14]
  MIC: >500 µg/mL
[1]; [15]
  MIC: >500 µg/mL
[1]; C. albicans strains
  MIC: > 500 micrograms/milliliter

## O=S(=O)([O-])[O-].[Cu+2] [Copper sulfate, copper sulfate]
[2]; dissolved in gel, 800 micrograms/milliliter, TSA, 24 hours (FIG. 1)
  Area of inhibition (AoI): 28 mm^2
[3]
  Zone of Inhibition (mm): 13 mm
[4]
  pH of stock solutions: 3.4
P. acnes; [16]
  MIC: 100 µg/mL
P. acnes; Experiment #2, 24 hours anaerobic
  MIC: 200 µg/mL
[5]
  MIC: 6.3 microgram/milliliter
[6]
  MIC: 100 microgram/milliliter
[7]
  MIC: 50 microgram/milliliter
[8]
  MIC: 12.5 microgram/milliliter
[9]; 12.5 μg/ml, Day 4
  Diameter of fungal growth (mm): 15 mm
[9]; 12.5 μg/ml, Day 7
  Diameter of fungal growth (mm): 17 mm
[9]; 12.5 μg/ml, Day 11
  Diameter of fungal growth (mm): 18 mm
[9]; 37.5 μg/ml, Day 4
  Diameter of fungal growth (mm): 13 mm
[9]; 37.5 μg/ml, Day 7
  Diameter of fungal growth (mm): 16 mm
[9]; 37.5 μg/ml, Day 11
  Diameter of fungal growth (mm): 18 mm
[9]; 125 μg/ml, Day 4, NG = no growth by phase microscopy
  Diameter of fungal growth (mm): 7 mm
[9]; 125 μg/ml, Day 7, NG = no growth
  Diameter of fungal growth (mm): 10 mm
[9]; 125 μg/ml, Day 11, NG = no growth
  Diameter of fungal growth (mm): 15 mm
[10]; 3.75 μg/ml, Day 7
  Diameter of fungal growth (mm): 14 mm
[10]; 3.75 μg/ml, Day 15
  Diameter of fungal growth (mm): 20 mm
[10]; 12.5 μg/ml, Day 7
  Diameter of fungal growth (mm): 14 mm
[10]; 12.5 μg/ml, Day 15
  Diameter of fungal growth (mm): 20 mm
[10]; 37.5 μg/ml, Day 7
  Diameter of fungal growth (mm): 13 mm
[10]; 37.5 μg/ml, Day 15, 20 mm = confluent
  Diameter of fungal growth (mm): 20** mm
[10]; 125 μg/ml, Day 7
  Diameter of fungal growth (mm): 10 mm
[10]; 125 μg/ml, Day 15
  Diameter of fungal growth (mm): 18 mm
[11]; 12.5 μg/ml
  Diameter of fungal growth (mm): 17 mm
[11]; 37.5 μg/ml
  Diameter of fungal growth (mm): 17 mm
[11]; 125 μg/ml
  Diameter of fungal growth (mm): 13 mm
[11]; 375 μg/ml, NG = no growth
  Diameter of fungal growth (mm): 3* mm
[1]; C. albicans strain 1-1, 24 hr
  MIC (μg/ml Cu^2+): 6.3 μg/ml Cu^2+
[1]; C. albicans strain 3-1, 24 hr
  MIC (μg/ml Cu^2+): 6.3 μg/ml Cu^2+
[1]; C. albicans strain 4-1, 24 hr
  MIC (μg/ml Cu^2+): 6.3 μg/ml Cu^2+
[12]; 24 hr
  MIC (μg/ml Cu^2+): 6.3 μg/ml Cu^2+
A-431
  50% cytotoxic concentrations (CC50): 50 micrograms/milliliter

## O=S(=O)([O-])[O-].[Zn+2] [Zinc sulfate, zinc sulfate]
[2]; alone in gel, 50-200 micrograms/milliliter (FIG. 2)
  effect on the growth of S1 (S. aureus): no effect
[2]; in gel, 100 micrograms/milliliter (FIG. 3)
  effect on the growth of S1 (S. aureus): no effect
P. acnes; [16]
  MIC: 25 µg/mL
P. acnes; Table 5 experiment, varying Cu:Zn ratios
  MIC: 50 µg/mL
[1]; [13]
  MIC: >150 µg/mL
[1]; [14]
  MIC: >150 µg/mL
[1]; [15]
  MIC: >150 µg/mL
[1]; C. albicans strains
  MIC: > 150 micrograms/milliliter
[12]; copper-free control, concentration of zinc sulfate
  MIC: >150 µg/mL
